# Source: publication PMC7897990, “TriTOX: A novel Trichomonas vaginalis assay platform for high-throughput screening of compound libraries” (International Journal for Parasitology: Drugs and Drug …, 2021)
# Structures can show the parent of a compound that is named as a salt. Where two headings read alike, the source gives them in different places. Non-standard residues stand in square brackets, D forms with d. Residues, ends and D or L forms follow the SMILES beside them. GABA = NCCCC(=O)O
# Legend:
# [1] = tested on: Trichomonas vaginalis G3 trophozoites; experiment: microbe, parasite or virus in culture; settings: 48 h
# [2] = tested on: nontumorigenic neonatal foreskin fibroblast (NFF) cell line
# [3] = tested on: Trichomonas vaginalis G3 trophozoites
# [4] = read-out: T.vaginalis_%inb_Rep1
# [5] = read-out: T.vaginalis_%inb_Rep2
# [6] = NFF fibroblasts, single concentration 5 µg/mL
# [7] = HTS replicate 1, parasite screen 1 µg/mL
# [8] = HTS replicate 2, parasite screen 1 µg/mL
# [9] = NFF fibroblast screen at 5 µg/mL, A = active, I = inactive
# [10] = HTS, parasite screen at 1 µg/mL, replicate 1
# [11] = HTS, parasite screen at 1 µg/mL, replicate 2
# [12] = HTS, parasite screen at 1 µg/mL, replicate 1, raw absorbance
# [13] = HTS, parasite screen at 1 µg/mL, replicate 2, raw absorbance
Molecule,"NFF_Activity [2, 9]","T.vaginalis_%inb_Rep1 [3, 10]","T.vaginalis_%inb_Rep2 [3, 11]",further results
CN(C)[C@H]1C(O)=C(C(N)=O)C(=O)[C@@]2(O)C(O)=C3C(=O)c4c(O)cccc4[C@@](C)(O)[C@H]3C[C@@H]12 [Epitetracycline hydrochloride],–,–,–,"inhibition of growth at 1 µg/mL [1, 4]: 11%; inhibition of growth at 1 µg/mL [1, 5]: 4.41%"
CN(C)c1ccc(O)c2c1C[C@H]1C[C@H]3[C@H](N(C)C)C(O)=C(C(N)=O)C(=O)[C@@]3(O)C(O)=C1C2=O [Minocycline HCl],–,–,–,"inhibition of growth at 1 µg/mL [1, 4]: 4.51%; inhibition of growth at 1 µg/mL [1, 5]: 0.77%"
CC[C@@]1([C@@H]2O[C@@H]([C@H]3O[C@@](O)(CO)[C@H](C)C[C@@H]3C)C[C@@H]2C)CC[C@H]([C@]2(C)CC[C@]3(C[C@H](O)[C@@H](C)[C@@H]([C@@H](C)[C@@H](OC)[C@H](C)C(=O)O)O3)O2)O1 [Monensin A],–,–,–,"inhibition of growth at 1 µg/mL [1, 4]: 12.4%; inhibition of growth at 1 µg/mL [1, 5]: 16.1%"
COc1c(C)c2c(c(O)c1C/C=C(\C)CCC(=O)O)C(=O)OC2 [Mycophenolic acid],–,–,–,"inhibition of growth at 1 µg/mL [1, 4]: 12.2%; inhibition of growth at 1 µg/mL [1, 5]: 14.1%"
CC[C@@H](C(=O)O)[C@@H]1O[C@@H]([C@@H](C)[C@H](O)[C@H](C)C(=O)[C@H](CC)[C@H]2O[C@]3(C=C[C@@H](O)[C@]4(CC[C@@](C)([C@H]5CC[C@](O)(CC)[C@H](C)O5)O4)O3)[C@H](C)C[C@@H]2C)[C@@H](C)C[C@@H]1C [Narasin],–,–,–,"inhibition of growth at 1 µg/mL [1, 4]: 6.14%; inhibition of growth at 1 µg/mL [1, 5]: 4.3%"
CO[C@@H]1C[C@@H](C[C@H]2CC[C@H](C)[C@H]([C@@H](C)C(=O)O)O2)O[C@]2(O[C@](C)([C@H]3CC[C@@](C)([C@@H]4O[C@@H]([C@H]5O[C@@](O)(CO)[C@H](C)C[C@@H]5C)C[C@@H]4C)O3)C[C@H]2C)[C@@H]1C [Nigericin],–,–,–,"inhibition of growth at 1 µg/mL [1, 4]: 6.59%; inhibition of growth at 1 µg/mL [1, 5]: 6.22%"
C[C@@H]1CC[C@H](O)/C=C/C(=O)O[C@H](C)CC[C@H](O)/C=C/C(=O)O1 [Pyrenophorol],–,–,–,"NFF_Activity [2, 6]: I (otherwise these were reported as inactive (I)); T.vaginalis_%inb_Rep1 [3, 7]: 10.44%; T.vaginalis_%inb_Rep2 [3, 8]: 11.15%"
C[C@H]1NC(=O)[C@@H]2CCCCN2C(=O)CN(C)C(=O)CNC(=O)[C@@H]2CCCCN2C(=O)[C@H](NC(=O)c2nc3ccccc3cc2O)[C@@H](C)NC(=O)[C@@H]2CCCCN2C(=O)CN(C)C(=O)CNC(=O)[C@@H]2CCCCN2C(=O)[C@@H]1NC(=O)c1nc2ccccc2cc1O [Quinaldopeptin],–,–,–,"NFF_Activity [2, 6]: I (otherwise these were reported as inactive (I)); T.vaginalis_%inb_Rep1 [3, 7]: 92.82%; T.vaginalis_%inb_Rep2 [3, 8]: 95.37%"
CC1=CC2C(O)CCCC2C(C)(C(O)=C2C(=O)CNC2=O)C1CCC(C)C(O)/C(C)=C/CC(O)/C=C/C(C)C(O)/C=C/CC(O)/C=C/CC(O)CC1CCCN1C(=N)N (stereo not shown) [TPU-0037C],I (otherwise these were reported as inactive (I)),9.28%,14.69%,–
CO[C@H]1/C=C\C=C(\C)C[C@H](C)[C@H](O)[C@H](C)/C=C(C)\C=C(\C)C(=O)O[C@@H]1[C@@H](C)[C@@H](O)[C@H](C)[C@@]1(O)C[C@@H](OC(=O)/C=C/C(=O)O)[C@H](C)[C@@H](C(C)C)O1 [TS 155-2],I (otherwise these were reported as inactive (I)),71.89%,89.46%,–
CCC1OC(=O)CC(O)C(C)C(OC2OC(C)C(O)C(N(C)C)C2O)C(CCN2CC(C)CC(C)C2)CC(C)C(=O)C=CC(C)=CC1COC1OC(C)C(O)C(OC)C1OC.O=P(O)(O)O (stereo not shown) [Tilmicosin phosphate],I (otherwise these were reported as inactive (I)),8.60%,12.37%,–
CC[C@H]1C[C@@H]2CC[C@@H](O2)[C@@H](C)C(=O)O[C@H](CC)C[C@H]2CC[C@H](O2)[C@H](C)C(=O)O[C@@H](C)C[C@@H]2CC[C@@H](O2)[C@@H](C)C(=O)O[C@H](CC)C[C@H]2CC[C@H](O2)[C@H](C)C(=O)O1 [Trinactin],I (otherwise these were reported as inactive (I)),11.27%,13.47%,–
O=C(O)c1cccc2nc3ccccc3nc12 [Tubermycin B],I (otherwise these were reported as inactive (I)),8.13%,16.27%,–
CN[C@@H]1C[C@H]2O[C@@](C)([C@@H]1OC)n1c3ccccc3c3c4c(c5c6ccccc6n2c5c31)C(=O)N[C@H]4O [UCN-01],A (active (A) compounds having >25% inhibitory activity),11.33%,13.65%,–
CN[C@@H]1C[C@H]2O[C@@](C)([C@@H]1OC)n1c3ccccc3c3c4c(c5c6ccccc6n2c5c31)C(=O)N[C@H]4O [UCN-02],A (active (A) compounds having >25% inhibitory activity),9.65%,20.96%,–
COC(=O)c1cccc2oc(-c3cccc4oc(-c5ccccc5O)nc34)nc12 [UK-1],I (otherwise these were reported as inactive (I)),10.64%,15.36%,–
CCOCCO[C@@H]1CC[C@@H](C[C@@H](C)[C@@H]2CC(=O)[C@H](C)/C=C(\C)[C@@H](O)[C@@H](OC)C(=O)[C@H](C)C[C@H](C)/C=C/C=C/C=C(\C)[C@@H](OC)C[C@@H]3CC[C@@H](C)[C@@](O)(O3)C(=O)C(=O)N3CCCC[C@H]3C(=O)O2)C[C@H]1OC [Umirolimus],I (otherwise these were reported as inactive (I)),9.81%,13.47%,–

Molecule,"NFF_Activity [2, 9]","T.vaginalis_%inb_Rep1 [3, 10]","T.vaginalis_%inb_Rep2 [3, 11]",further results
CC(C)[C@H]1NC(=O)[C@H](Cc2ccccc2)NC(=O)[C@@H](C(C)C)NC(=O)[C@@H](C)NC(=O)CCCNC(=O)[C@@H](Cc2c[nH]c3ccccc23)NC(=O)[C@@H](C)NC1=O [Unguisin A] (cyclo(F[dV][dA][dW][GABA][dA][dV])),I (otherwise these were reported as inactive (I)),9.07%,14.50%,–
OCC1=CC(NC2CC(CO)C(OC3OC(CO)C(O)C(O)C3O)C(O)C2O)C(O)C(O)C1O (stereo not shown) [Validamycin A],I (otherwise these were reported as inactive (I)),14.26%,19.07%,–
CCC(=O)[C@@H](C)[C@@H](O)[C@H](C)C[C@@H](C)[C@H]1OC(=O)C[C@@]2(O)CC=C(C)[C@H](O2)/C(C)=C/CCC[C@@H](O[C@H]2C[C@@H](OC(N)=O)[C@H](O)[C@@H](C)O2)/C=C/[C@H](C)C[C@H]1C [Venturicidin A],I (otherwise these were reported as inactive (I)),9.49%,12.92%,–
CCC(=O)[C@@H](C)[C@@H](O)[C@H](C)C[C@@H](C)[C@H]1OC(=O)C[C@@]2(O)CC=C(C)[C@H](O2)/C(C)=C/CCC[C@@H](O[C@H]2C[C@@H](O)[C@H](O)[C@@H](C)O2)/C=C/[C@H](C)C[C@H]1C [Venturicidin B],I (otherwise these were reported as inactive (I)),9.81%,16.33%,–
"CC1CCCC(O)CCCCCc2cc(O)cc(O)c2C(=O)O1 (stereo not drawn) [Zearalanol, alpha-]",I (otherwise these were reported as inactive (I)),6.97%,13.04%,–
"CC1CCCC(O)CCCCCc2cc(O)cc(O)c2C(=O)O1 (stereo not drawn) [Zearalanol, beta-]",I (otherwise these were reported as inactive (I)),9.65%,13.83%,–
"C[C@@H]1CCC[C@@H](O)CCC/C=C/c2cc(O)cc(O)c2C(=O)O1 [Zearalenol, alpha-]",I (otherwise these were reported as inactive (I)),11.90%,12.68%,–
"C[C@@H]1CCC[C@H](O)CCC/C=C/c2cc(O)cc(O)c2C(=O)O1 [Zearalenol, beta-]",I (otherwise these were reported as inactive (I)),9.54%,15.05%,–
Diacetoxyscirpenol,–,–,–,NFF_Activity [2]: I (key: active (A) compounds having >25% inhibitory activity; otherwise these were reported as inactive (I)); T.vaginalis_%inb_Rep1 [3]: 8.29%; T.vaginalis_%inb_Rep2 [3]: 9.08%; T.vaginalis_Absorbance_Rep1 [3]: 0.923; T.vaginalis_Absorbance_Rep2 [3]: 0.786
Dihydrocyclosporin A,–,11.52%,13.52%,"NFF_Activity ([2]; NFF_NS1 screen at 5 µg/mL): I (otherwise these were reported as inactive (I)); T.vaginalis_Absorbance_Rep1 [3, 12]: 0.923; T.vaginalis_Absorbance_Rep2 [3, 13]: 0.807"
Echinocandin B,–,15.24%,6.58%,"NFF_Activity ([2]; NFF_NS1 screen at 5 µg/mL): I (otherwise these were reported as inactive (I)); T.vaginalis_Absorbance_Rep1 [3, 12]: 0.992; T.vaginalis_Absorbance_Rep2 [3, 13]: 0.711"
Eprinomectin,–,12.49%,15.33%,"NFF_Activity ([2]; NFF_NS1 screen at 5 µg/mL): I (otherwise these were reported as inactive (I)); T.vaginalis_Absorbance_Rep1 [3, 12]: 0.941; T.vaginalis_Absorbance_Rep2 [3, 13]: 0.832"
Fulvic acid,–,12.65%,4.34%,"NFF_Activity ([2]; NFF_NS1 screen at 5 µg/mL): I (otherwise these were reported as inactive (I)); T.vaginalis_Absorbance_Rep1 [3, 12]: 0.944; T.vaginalis_Absorbance_Rep2 [3, 13]: 0.68"
Nargenicin,–,–,–,"NFF_Activity [2, 6]: I (otherwise these were reported as inactive (I)); T.vaginalis_%inb_Rep1 [3, 7]: 10.70%; T.vaginalis_%inb_Rep2 [3, 8]: 13.02%"
Orfamide A,–,–,–,"NFF_Activity [2, 6]: I (otherwise these were reported as inactive (I)); T.vaginalis_%inb_Rep1 [3, 7]: 9.99%; T.vaginalis_%inb_Rep2 [3, 8]: 10.90%"
Pladienolide B,–,–,–,"NFF_Activity [2, 6]: I (otherwise these were reported as inactive (I)); T.vaginalis_%inb_Rep1 [3, 7]: 11.92%; T.vaginalis_%inb_Rep2 [3, 8]: 13.15%"
Viridicatumtoxin,I (otherwise these were reported as inactive (I)),8.70%,2.74%,–
